Paper PMC6856039 (Investigational New Drugs, 2019)
Read-outs that look alike come from different tables or passages of the source. Marks after values point to notes of the source that are not given here.

Tests used:
[1] = Procedure: PK parameters were evaluated on Day 1 and Day 15.
The planned sample size was 300 patients maximum, including 54 patients in the dose escalation phase, seven patients at each level of the first stage of the expansion phase, 20 patients at each level in the second stage of the expansion phase, and in the extension phase, 100, 40, 20, and 10 patients in Cohorts A, B, C, and D, respectively. The main analysis sets in each study phase are defined in Supplementary Table 1 (Online Resource 3). Safety and efficacy data are summarized using descriptive statistics. PK parameters were calculated according to the non-compartmental method. ORR, DCR, and median PFS were calculated along with 95% CIs. The statistical software used to perform statistical analyses was SAS version 9.2 (SAS Inc., Cary, NC, USA, RRID: SCR_008567). For the PK analysis, Phoenix® WinNonlin® Ver. 6.3 and 6.4 (Certara, Princeton, NJ, USA) was used.

[2] = tested on: T790M-positive NSCLC patients; format: in vivo, human; details: for median PFS / Best overall response: Not evaluable / Best overall response: Partial response / Best overall response: Progression disease / Best overall response: Stable disease / Disease control rate / Objective response rate: T790M-positive
Source text: To assess the EGFR T790M mutation tumor status, mandatorily collected plasma from patients was processed, and isolated circulating cell-free DNA (cfDNA) was submitted for laboratory testing (Fluorescence Resonance Energy Transfer-based Preferential Formation Assay [F-PHFA] method) by central review. In some patients, collected tumor biopsies were submitted for EGFR genotyping (Therascreen® EGFR RGQ PCR kit [Qiagen, Venlo, Netherlands]).
Antitumor efficacy was based on objective tumor assessments according to the Response Evaluation Criteria in Solid Tumors criteria (version 1.1, 2009). Computed tomography scans were performed at baseline, every 6 weeks after starting administration, and at the time of discontinuation. The ORR, DCR, and PFS at each phase were assessed according to dose level and regimen. ORR was defined as the proportion of patients in which the best overall response was determined to be CR or PR and was calculated in patients with measurable lesions. DCR was defined as the proportion of patients in which the best overall response was determined to be CR, PR, or stable disease. PFS was defined as the median time from enrollment to PD or death from any cause.

[3] = BID 8 mg/day, cycle 1, day 15, n = 9
[4] = BID 12 mg/day, cycle 1, day 15, n = 4
[5] = QD 4 mg/day, cycle 1, day 15, n = 3
[6] = QD 8 mg/day, cycle 1, day 15, n = 9
[7] = QD 10 mg/day, cycle 1, day 15, n = 7
[8] = QD 12 mg/day, cycle 1, day 15, n = 2
[9] = QD 16 mg/day, cycle 1, day 15, n = 1

Compound: C=CC(=O)N[C@H]1CCc2c(-c3cnc4ccccc4c3)c3c(N)ncnc3n2C1 [TAS-121]
- AUC0-12h, mean (standard deviation) [1, 3]: 1520 (520) ng•h/mL
- Cmax, mean (standard deviation) [1, 3]: 290 (104) ng/mL
- T1/2, mean (standard deviation) [1, 3]: 5.11 (1.48) h
- Tmax, median (minimum–maximum) [1, 3]: 1.00 (0.50–1.00) h
- AUC0-12h, mean (standard deviation) [1, 4]: 5860 (1460) ng•h/mL
- Cmax, mean (standard deviation) [1, 4]: 772 (201) ng/mL
- T1/2, mean (standard deviation) [1, 4]: 8.84 (3.31) h
- Tmax, median (minimum–maximum) [1, 4]: 2.00 (1.00–3.00) h
- AUC0-24h, mean (standard deviation) [1, 5]: 2670 (1110) ng•h/mL
- Cmax, mean (standard deviation) [1, 5]: 304 (13) ng/mL
- T1/2, mean (standard deviation) [1, 5]: 8.83 (2.88) h
- Tmax, median (minimum–maximum) [1, 5]: 1.00 (1.00–1.00) h
- AUC0-24h, mean (standard deviation) [1, 6]: 4860 (2520) ng•h/mL
- Cmax, mean (standard deviation) [1, 6]: 569 (312) ng/mL
- T1/2, mean (standard deviation) [1, 6]: 8.60 (2.49) h
- Tmax, median (minimum–maximum) [1, 6]: 1.00 (0.50–2.00) h
- AUC0-24h, mean (standard deviation) [1, 7]: 8040 (4190) ng•h/mL
- Cmax, mean (standard deviation) [1, 7]: 900 (376) ng/mL
- T1/2, mean (standard deviation) [1, 7]: 8.61 (1.73) h
- Tmax, median (minimum–maximum) [1, 7]: 2.00 (0.75–4.00) h
- T1/2 ([1]; QD 12 mg/day, cycle 1, day 15, based on one patient): 8.12 (NA)^b h
- AUC0-24h, mean [1, 8]: 9500 (NA) ng•h/mL
- Cmax, mean [1, 8]: 1180 (NA) ng/mL
- Tmax, median (minimum–maximum) [1, 8]: 1.12 (1.00–1.23) h
- AUC0-24h [1, 9]: 5870 (NA) ng•h/mL
- Cmax [1, 9]: 825 (NA) ng/mL
- T1/2 [1, 9]: 6.44 (NA) h
- Tmax [1, 9]: 2.00 (NA) h
- objective response rate (ORR) ([2]; T790M-positive patients with measurable lesions, n = 86, regardless of the dosage): 28%
- objective response rate (ORR) ([2]; T790M-positive patients, 8 mg/day BID): 39%
- median PFS ([2]; 4 mg/day QD, 23 patients/17 events): 165 days
- Best overall response: Not evaluable ([2]; 4 mg/day QD, N = 15): 1 (6.7) n (%)
- Best overall response: Partial response ([2]; 4 mg/day QD, N = 15): 4 (26.7) n (%)
- Best overall response: Progression disease ([2]; 4 mg/day QD, N = 15): 7 (46.7) n (%)
- Best overall response: Stable disease ([2]; 4 mg/day QD, N = 15): 3 (20.0) n (%)
- Disease control rate ([2]; 4 mg/day QD, N = 15): 7 (46.7) n (%)
- Objective response rate ([2]; 4 mg/day QD, N = 15): 4 (26.7) n (%)
- median PFS ([2]; 8 mg/day BID, 36 patients/21 events): 253 days
- Best overall response: Not evaluable ([2]; 8 mg/day BID, N = 33): 1 (3.0) n (%)
- Best overall response: Partial response ([2]; 8 mg/day BID, N = 33): 13 (39.4) n (%)
- Best overall response: Progression disease ([2]; 8 mg/day BID, N = 33): 8 (24.2) n (%)
- Best overall response: Stable disease ([2]; 8 mg/day BID, N = 33): 11 (33.3) n (%)
- Disease control rate ([2]; 8 mg/day BID, N = 33): 24 (72.7) n (%)
- Objective response rate ([2]; 8 mg/day BID, N = 33): 13 (39.4) n (%)
- median PFS ([2]; 8 mg/day QD, 33 patients/25 events): 125 days
- Best overall response: Not evaluable ([2]; 8 mg/day QD, N = 28): 0 (0.0) n (%)
- Best overall response: Partial response ([2]; 8 mg/day QD, N = 28): 6 (21.4) n (%)
- Best overall response: Progression disease ([2]; 8 mg/day QD, N = 28): 11 (39.3) n (%)
- Best overall response: Stable disease ([2]; 8 mg/day QD, N = 28): 11 (39.3) n (%)
- Disease control rate ([2]; 8 mg/day QD, N = 28): 17 (60.7) n (%)
- Objective response rate ([2]; 8 mg/day QD, N = 28): 6 (21.4) n (%)
- Best overall response: Not evaluable ([2]; 10 mg/day QD, N = 7): 0 (0.0) n (%)
- Best overall response: Partial response ([2]; 10 mg/day QD, N = 7): 1 (14.3) n (%)
- Best overall response: Progression disease ([2]; 10 mg/day QD, N = 7): 3 (42.9) n (%)
- Best overall response: Stable disease ([2]; 10 mg/day QD, N = 7): 3 (42.9) n (%)
- Disease control rate ([2]; 10 mg/day QD, N = 7): 4 (57.1) n (%)
- Objective response rate ([2]; 10 mg/day QD, N = 7): 1 (14.3) n (%)
- median PFS ([2]; 10 mg/day QD, seven patients/three events): 401 days
- Best overall response: Not evaluable ([2]; 12 mg/day BID, N = 3): 1 (33.3) n (%)
- Best overall response: Partial response ([2]; 12 mg/day BID, N = 3): 0 (0.0) n (%)
- Best overall response: Progression disease ([2]; 12 mg/day BID, N = 3): 1 (33.3) n (%)
- Best overall response: Stable disease ([2]; 12 mg/day BID, N = 3): 1 (33.3) n (%)
- Disease control rate ([2]; 12 mg/day BID, N = 3): 1 (33.3) n (%)
- Objective response rate ([2]; 12 mg/day BID, N = 3): 0 (0.0) n (%)
- Best overall response: Not evaluable ([2]; 12 mg/day QD, N = 1): 0 (0.0) n (%)
- Best overall response: Partial response ([2]; 12 mg/day QD, N = 1): 0 (0.0) n (%)
- Best overall response: Progression disease ([2]; 12 mg/day QD, N = 1): 1 (100.0) n (%)
- Best overall response: Stable disease ([2]; 12 mg/day QD, N = 1): 0 (0.0) n (%)
- Disease control rate ([2]; 12 mg/day QD, N = 1): 0 (0.0) n (%)
- Objective response rate ([2]; 12 mg/day QD, N = 1): 0 (0.0) n (%)
- Best overall response: Not evaluable ([2]; Total, N = 87): 3 (3.4) n (%)
- Best overall response: Partial response ([2]; Total, N = 87): 24 (27.6) n (%)
- Best overall response: Progression disease ([2]; Total, N = 87): 31 (35.6) n (%)
- Best overall response: Stable disease ([2]; Total, N = 87): 29 (33.3) n (%)
- Disease control rate ([2]; Total, N = 87): 53 (60.9) n (%)
- Objective response rate ([2]; Total, N = 87): 24 (27.6) n (%)
